IC50 data for 54 molecules are collected here from patent publication US9458113B2 (Boehringer Ingelheim International GmbH, priority 2014, dated 2016).

Each structure is given as a SMILES string. A value given as a limit tells only on which side of the number the result lay.

Chain of Human neutrophil elastase (P08246 30-247): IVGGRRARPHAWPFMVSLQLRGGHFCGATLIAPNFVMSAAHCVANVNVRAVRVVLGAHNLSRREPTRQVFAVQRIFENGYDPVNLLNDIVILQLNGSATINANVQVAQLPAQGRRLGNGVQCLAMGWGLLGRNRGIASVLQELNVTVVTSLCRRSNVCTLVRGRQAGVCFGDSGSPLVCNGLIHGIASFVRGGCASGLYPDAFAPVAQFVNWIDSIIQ

The assay has as its target Human neutrophil elastase (Homo sapiens (Human), UniProt P08246). Kind of assay: Human Neutrophil Elastase Assay. To be noted: substrate MeOSuc-Ala-Ala-Pro-Val-AMC 250 μM, pH 7.5. The class given is biochemical.
Broadly, the IC50 is the point on the concentration scale where inhibition reaches its midpoint. In the case of `CN1C(=O)N(c2cccc(C(F)(F)F)c2)C2=C(C(=O)CC2)C1c1ccc(C#N)cc1C(=O)N1CCNCC1` (stereo not drawn) [Example 4], the midpoint of inhibition, the IC50, lay at 7.5 nM.
With `CN1C(=O)N(c2cccc(C(F)(F)F)c2)C2=C(C(=O)CCC2)C1c1ccc(C#N)cc1C1=CCNCC1` (stereo not drawn) [Example 16, 4-[3-Methyl-2,5-dioxo-1-(3-trifluoromethyl-phenyl)-1,2,3,4,5,6,7,8-octahydro-quinazolin-4-yl]-3-(1,2,3,6-tetrahydro-pyridin-4-yl)-benzonitrile] the figure was less than 1 nM; with `CN(Cc1ccn(C)n1)C(=O)c1cc(C#N)ccc1C1C2=C(CCC2=O)N(c2cccc(C(F)(F)F)c2)C(=O)N1C` (stereo not drawn) [Example 1.73], 1.3 nM; with `CN1C(=O)N(c2cccc(C(F)(F)F)c2)C2=C(C(=O)CC2)C1c1ccc(C#N)cc1C(=O)NCc1ccno1` (stereo not drawn) [Example 1.39], 1.9 nM.
In the case of `CN1C(=O)N(c2cccc(C(F)(F)F)c2)C2=C(C(=O)CC2)C1c1ccc(C#N)cc1C(=O)NCc1ccn(C)n1` (stereo not drawn) [Example 1.53] it was 2.2 nM; in that of `CN1C(=O)N(c2ccnc(C(F)(F)F)c2)C2=C(C(=O)CC2)C1c1ccc(C#N)cc1C(=O)N1CCCC1` (stereo not drawn) [Example 8.3], 32.8 nM; in that of `CN1C(=O)N(c2cccc(C(F)(F)F)c2)C2=C(C(=O)CC2)C1c1ccc(C#N)cc1C(=O)N1CCN2CCOCC2C1` (stereo not drawn) [Example 1.35], 16.2 nM.
With `CN(Cc1nncn1C)C(=O)c1cc(C#N)ccc1C1C2=C(CCC2=O)N(c2cccc(C(F)(F)F)c2)C(=O)N1C` (stereo not drawn) [Example 1.75] the figure was 1.4 nM.
The molecule `CC(=O)N(C)[C@H]1CCN(C(=O)c2cc(C#N)ccc2C2C3=C(CCC3=O)N(c3cccc(C(F)(F)F)c3)C(=O)N2C)C1` (stereo partly drawn) [Example 1.77] returned an IC50 of 2.3 nM.
With `CN1C(=O)N(c2cccc(C(F)(F)F)c2)C2=C(C(=O)CC2)C1c1ccc(C#N)cc1C(=O)NCC(C)(C)N` (stereo not drawn) [Example 4.11] the figure was 6.2 nM; with `CN1C(=O)N(c2cccc(C(F)(F)F)c2)C2=C(C(=O)CC2)C1c1ccc(C#N)cc1C(=O)NCc1ccon1` (stereo not drawn) [Example 1.43], 2 nM; with `CN1C(=O)N(c2cccc(C(F)(F)F)c2)C2=C(C(=O)CC2)C1c1ccc(C#N)cc1C(=O)NC1CCOC1` (stereo not drawn) [Example 1.18], 6.9 nM.
In turn, `CN1C(=O)N(c2cccc(C(F)(F)F)c2)C2=C(C(=O)CC2)C1c1ccc(C#N)cc1C(=O)N1CC[C@@H](N)C1` (stereo partly drawn) [Example 4.8] returned an IC50 of 5.9 nM.
In the case of `CN1C(=O)N(c2ccnc(C(F)(F)F)c2)C2=C(C(=O)CC2)C1c1ccc(C#N)cc1C1=CCNCC1` (stereo not drawn) [Example 18, 4-[3-Methyl-2,5-dioxo-1-(2-trifluoromethyl-pyridin-4-yl)-2,3,4,5,6,7-hexahydro-1H-cyclopentapyrimidin-4-yl]-3-(1,2,3,6-tetrahydro-pyridin-4-yl)-benzonitrile] it was 1.7 nM; in that of `CN1C(=O)N(c2cccc(C(F)(F)F)c2)C2=C(C(=O)CC2)C1c1ccc(C#N)cc1C(=O)NC1CCOCC1` (stereo not drawn) [Example 1.23], 8.4 nM.
In the case of `CN(Cc1ccno1)C(=O)c1cc(C#N)ccc1C1C2=C(CCC2=O)N(c2cccc(C(F)(F)F)c2)C(=O)N1C` (stereo not drawn) [Example 1.60] it was less than 1 nM.
With `CCNC(=O)c1cc(C#N)ccc1C1C2=C(CCC2=O)N(c2cccc(C(F)(F)F)c2)C(=O)N1C` (stereo not drawn) [Example 1.2], the IC50 came out at 5.5 nM.
In the case of `CN1C(=O)N(c2cccc(C(F)(F)F)c2)C2=C(C(=O)CC2)C1c1ccc(C#N)cc1C(=O)N1CCC(O)CC1` (stereo not drawn) [Example 1.22] it was 10.3 nM; in that of `CN1C(=O)N(c2cccc(C(F)(F)F)c2)C2=C(C(=O)CC2)C1c1ccc(C#N)cc1-c1cccnc1` (stereo not drawn) [Example 11.10], 3.1 nM.
With `N#Cc1ccc(C2NC(=O)N(c3cccc(C(F)(F)F)c3)C3=C2C(=O)CC3)c(-c2ccoc2)c1` (stereo not drawn) [Example 19, 4-[2,5-Dioxo-1-(3-trifluoromethyl-phenyl)-2,3,4,5,6,7-hexahydro-1H-cyclopentapyrimidin-4-yl]-3-furan-3-yl-benzonitrile] the figure was 10.1 nM; with `CN(Cc1ccncc1)C(=O)c1cc(C#N)ccc1C1C2=C(CCC2=O)N(c2cccc(C(F)(F)F)c2)C(=O)N1C` (stereo not drawn) [Example 1.65], 1.7 nM; with `CC1CN(C(=O)c2cc(C#N)ccc2C2C3=C(CCC3=O)N(c3cccc(C(F)(F)F)c3)C(=O)N2C)CCN1` (stereo not drawn) [Example 4.16], 10.8 nM.
With `CN1C(=O)N(c2cccc(C(F)(F)F)c2)C2=C(C(=O)CC2)C1c1ccc(C#N)cc1C(N)=O` (stereo not drawn) [Example 1, 5-Cyano-2-[3-methyl-2,5-dioxo-1-(3-trifluoromethyl-phenyl)-2,3,4,5,6,7-hexahydro-1H-cyclopentapyrimidin-4-yl]-benzamide] the figure was 5.3 nM; with `CC(=O)N[C@@H]1CCN(C(=O)c2cc(C#N)ccc2C2C3=C(CCC3=O)N(c3cccc(C(F)(F)F)c3)C(=O)N2C)C1` (stereo partly drawn) [Example 1.84], 1.3 nM.
The molecule `CN1CCC(NC(=O)c2cc(C#N)ccc2C2C3=C(CCC3=O)N(c3cccc(C(F)(F)F)c3)C(=O)N2C)CC1` (stereo not drawn) [Example 1.25] gave a 50% inhibitory concentration (IC50) of 8 nM.
With `CN1C(=O)N(c2cccc(C(F)(F)F)c2)C2=C(C(=O)CC2)C1c1ccc(C#N)cc1-c1cncs1` (stereo not drawn) [Example 11.3] the figure was 1.9 nM; with `CN1C(=O)N(c2ccnc(C(F)(F)F)c2)C2=C(C(=O)CC2)C1c1ccc(C#N)cc1-c1ccn(C)c(=O)c1` (stereo not drawn) [Example 17.3], 10.6 nM.
In the case of `CN(C)C(=O)c1cc(C#N)ccc1C1C2=C(CCCC2=O)N(c2cccc(C(F)(F)F)c2)C(=O)N1C` (stereo not drawn) [Example 6.4] it was 1.1 nM; in that of `CC(=O)N(C)[C@@H]1CCN(C(=O)c2cc(C#N)ccc2C2C3=C(CCC3=O)N(c3cccc(C(F)(F)F)c3)C(=O)N2C)C1` (stereo partly drawn) [Example 1.78], 2.6 nM.
In the case of `CN1C(=O)N(c2cccc(C(F)(F)F)c2)C2=C(C(=O)CC2)C1c1ccc(C#N)cc1C(=O)N1CCCC1` (stereo not drawn) [Example 1.10] it was 3.4 nM.
As to `CNCc1cc(C#N)ccc1C1C2=C(CCC2=O)N(c2cccc(C(F)(F)F)c2)C(=O)N1C` (stereo not drawn) [Example 9.4], half-maximal inhibition (IC50) was put at 2.2 nM.
On to `CCN1CCN(C(=O)c2cc(C#N)ccc2C2C3=C(CCC3=O)N(c3cccc(C(F)(F)F)c3)C(=O)N2C)CC1` (stereo not drawn) [Example 3.2], for which it took 8.1 nM to reach half-maximal inhibition (IC50).
With `CN1C(=O)N(c2cccc(C(F)(F)F)c2)C2=C(C(=O)CC2)C1c1ccc(C#N)cc1C(=O)N1CCn2ccnc2C1` (stereo not drawn) [Example 1.68] the figure was less than 1 nM; with `CN1C(=O)N(c2cccc(C(F)(F)F)c2)C2=C(C(=O)CC2)C1c1ccc(C#N)cc1CNC(C)(C)C` (stereo not drawn) [Example 9.2], 3.3 nM.
Molecule `CN1C(=O)N(c2cccc(C(F)(F)F)c2)C2=C(C(=O)CC2)C1c1ccc(C#N)cc1C(=O)NC1CCS(=O)(=O)C1` (stereo not drawn) [Example 1.28] had an IC50 of 4.3 nM.
In the case of `CN1C(=O)N(c2cccc(C(F)(F)F)c2)C2=C(C(=O)CC2)C1c1ccc(C#N)cc1C(=O)N1CCn2ncnc2C1` (stereo not drawn) [Example 1.70] it was 1.9 nM; in that of `CN1C(=O)N(c2cccc(C(F)(F)F)c2)C2=C(C(=O)CC2)[C@H]1c1ccc(C#N)cc1C(=O)N1CCOCC1` [Example 2.3], 2.9 nM; in that of `CN1C(=O)N(c2cccc(C(F)(F)F)c2)C2=C(C(=O)CC2)C1c1ccc(C#N)cc1C(=O)NC1CC1` (stereo not drawn) [Example 1.6], 6.3 nM.
In turn, `CN(Cc1ccon1)C(=O)c1cc(C#N)ccc1C1C2=C(CCC2=O)N(c2cccc(C(F)(F)F)c2)C(=O)N1C` (stereo not drawn) [Example 1.59] registered an IC50 of 1.1 nM.
With `CN1C(=O)N(c2cccc(C(F)(F)F)c2)C2=C(C(=O)CC2)C1c1ccc(C#N)cc1C(=O)N1CCn2cncc2C1` (stereo not drawn) [Example 1.66] the figure was 7.1 nM; with `CN1C(=O)N(c2cccc(C(F)(F)F)c2)C2=C(C(=O)CC2)C1c1ccc(C#N)cc1C(=O)N1CCC1` (stereo not drawn) [Example 1.7], 2.2 nM.
Regarding `CN(CCN)C(=O)c1cc(C#N)ccc1C1C2=C(CCC2=O)N(c2cccc(C(F)(F)F)c2)C(=O)N1C` (stereo not drawn) [Example 4.5], the IC50 worked out at 2 nM.
With `CN1C(=O)N(c2cccc(C(F)(F)F)c2)C2=C(C(=O)CC2)C1c1ccc(C#N)cc1C(=O)NCCS(C)(=O)=O` (stereo not drawn) [Example 1.26] the figure was 4.6 nM; with `CN1C(=O)N(c2cccc(C(F)(F)F)c2)C2=C(C(=O)CC2)C1c1ccc(C#N)cc1-c1ccc2c(cnn2C)c1` (stereo not drawn) [Example 11.12], 7.9 nM.
With `CN1C(=O)N(c2cccc(C(F)(F)F)c2)C2=C(C(=O)CC2)C1c1ccc(C#N)cc1C(=O)NCc1ncco1` (stereo not drawn) [Example 1.41] the figure was 3.8 nM.
With `CN1C(=O)N(c2cccc(C(F)(F)F)c2)C2=C(C(=O)CC2)C1c1ccc(C#N)cc1C(=O)NCC(C)(C)O` (stereo not drawn) [Example 1.19] the figure was 9.5 nM; with `CN1C(=O)N(c2cccc(C(F)(F)F)c2)C2=C(C(=O)CC2)C1c1ccc(C#N)cc1C(=O)NC1COC1` (stereo not drawn) [Example 1.12], 5.3 nM.
`CN1C(=O)N(c2cccc(C(F)(F)F)c2)C2=C(C(=O)CC2)C1c1ccc(C#N)cc1C(=O)NCc1cn(C)cn1` (stereo not drawn) [Example 1.54] had an IC50 of 6.9 nM.
In the case of `CN1C(=O)N(c2cccc(C(F)(F)F)c2)C2=C(C(=O)CC2)C1c1ccc(C#N)cc1CN1CCOCC1` (stereo not drawn) [Example 9, 4-[3-Methyl-2,5-dioxo-1-(3-trifluoromethyl-phenyl)-2,3,4,5,6,7-hexahydro-1H-cyclopentapyrimidin-4-yl]-3-morpholin-4-ylmethyl-benzonitrile] it was 1.4 nM; in that of `CN1C(=O)N(c2cccc(C(F)(F)F)c2)C2=C(C(=O)CC2)C1c1ccc(C#N)cc1-c1ccco1` (stereo not drawn) [Example 11.8], 3.3 nM; in that of `COc1ccc(-c2cc(C#N)ccc2C2C3=C(CCC3=O)N(c3cccc(C(F)(F)F)c3)C(=O)N2C)cn1` (stereo not drawn) [Example 11.13], 3.9 nM.
In the case of `CN1C(=O)N(c2cccc(C(F)(F)F)c2)C2=C(C(=O)CC2)C1c1ccc(C#N)cc1C1=CCNCC1` (stereo not drawn) [Example 14.2] it was less than 1 nM; in that of `CN1C(=O)N(c2cccc(C(F)(F)F)c2)C2=C(C(=O)CC2)C1c1ccc(C#N)cc1C(=O)N1CC2COCC(C1)N2` (stereo not drawn) [Example 4.17], 36.2 nM.
In the case of `C#CCNC(=O)c1cc(C#N)ccc1C1C2=C(CCC2=O)N(c2cccc(C(F)(F)F)c2)C(=O)N1C` (stereo not drawn) [Example 1.4] it was 3.7 nM.
